Marks after values point to notes of the source that are not given here.
Experiments:
Assay type in all cases: cell-based
[1] = test system: loblolly pine (Pinus taeda) embryogenic cell lines; assay: Percent increase in fresh weight of pine embryogenic cell lines retrieved from cryopreservation on post-cryopreservation recovery medium (Examples 1 and 2); details: for Additional Culture Growth on DCR1 + ABA: 30 mg/l ABA vs medium without ABA
Experimental: Each embryogenic culture was cryopreserved as follows. Embryogenic tissue (7 to 14 days since the last subculture) was dispersed in liquid DCR1 medium (the DCR1 medium of Table I without the GELRITE) which contained 0.4 molar sorbitol as described in U.S. Pat. No. 5,506,136. The amount of embryogenic tissue used was sufficient to result in a 40% suspension (i.e., 4 ml volume of embryogenic tissue added to 6 ml of liquid medium). An Erlenmeyer flask containing the suspension was incubated for 24 hours in the dark on a gyrotory shaker (100 rpm), and then placed on ice. Five aliquots of the cryoprotective chemical dimethyl sulfoxide (DMSO) were aseptically added to the suspension to bring the final concentration of DMSO to 10% (vol/vol). One milliliter aliquots of the suspension containing DMSO were then transferred to 2 ml NALGENE® cryogenic vials (manufactured by the Nalge Co.), placed in programmable freezer (Model 9000 manufactured by Gordinier Electronics) and cooled to −35° C. at a rate of 0.33° C. per minute. The cultures were cryopreserved by immersing the cryogenic vials in liquid nitrogen inside a cryogenic storage tank (Model #CY50945 manufactured by Thermolyne, Inc.). The cultures remained in cryogenic storage for at least 36 months prior to retrieval.
The cryogenic vials were retrieved from the cryogenic storage tank and placed in 44° C. water until the ice crystals in the frozen embryogenic cultures were melted. The thawed culture from each cryogenic vial was aseptically pipetted and dispensed onto a sterile 7 cm×7 cm NITEX nylon 35 μm pore size membrane (commercially available from Sefar, Inc.) which had been placed on top of two sterile filter papers (Whatman no. 2 commercially available from Whatman International Ltd.) to absorb excess liquid from the culture and membrane. Each nylon membrane containing embryogenic culture was then transferred to a DCR1 medium which served as a temporary recovery medium for 24 hours in order to lower the concentration of cryoprotective chemicals and osmotic agents contained in the culture.
Each nylon membrane containing embryogenic tissue was then transferred to one of two post-cryopreservation medium treatments. One treatment was DCR1 medium without ABA. The other treatment was DCR1 medium with 30 mg/l of ABA. The initial fresh weight (FW0) of the embryogenic tissue was measured aseptically at this time. There were 3 plates (each derived from an individual cryogenic vial) per treatment and cell line. The embryogenic cultures on membranes were transferred after 24 hours, and thereafter, every 14 days to a new plate of the same medium. The culture environment during post-cryopreservation recovery and growth was 23° C. in the dark. At 25 days after retrieval from cryogenic storage the final fresh weight (FWF) of the proliferating embryogenic culture was measured. The growth of the embryogenic tissue during the post-cryopreservation treatments was calculated as a percent increase in fresh weight relative to the initial fresh weight as follows: ((FWF−FW0)/FW0)*100.
Each cell line was cryopreserved as follows. The liquid suspension cultures (7 days since the last subculture) were aseptically centrifuged at 1500 rpm for 10 minutes (400 g-force) to separate the embryogenic tissue from the liquid medium. The supernatant medium was removed from the embryogenic tissue. To the remaining volume of centrifuged embryogenic tissue, was added an equal volume of liquid DCR1 medium containing 0.8 molar sorbitol, so that the final sorbitol concentration was 0.4 molar. An Erlenmeyer flasks containing each suspension was incubated for 24 hours in the dark on a gyrotory shaker (100 rpm), and then placed on ice. The cryoprotective chemical DMSO was added to the chilled cultures at one time to bring the final concentration of DMSO to 10% (vol/vol). […]

[2] = test system: loblolly pine cell lines (G-05, K-12, E-117 and O-72); assay: Mean culture fresh weight of embryogenic cultures retrieved from cryopreservation on post-cryopreservation recovery medium (Example 3); details: for % Increase of average culture fresh weight over control without ABA: all seven cell lines; for Mean Culture Fresh Weight, average of cell lines: average of all seven cell lines (loblolly and pitch×loblolly hybrid); for Mean Culture Fresh Weight: 28 days after retrieval
Text: (§1) Five different pine embryogenic cell lines chosen at random from a long-term cryogenic storage bank were initiated, grown as liquid embryogenic suspension cultures, and cryopreserved via the methods described in Examples 1 and 2. The five cell lines included: one pitch×loblolly pine interspecies hybrid cell line (AA-24) and four loblolly pine cell lines (G-05, K-12, E-117 and O-72). Also, two additional pitch×loblolly pine F1 hybrid cell lines (Q-01 and Q-39) were initiated, grown as liquid embryogenic suspension cultures, and cryopreserved via the methods described in Examples 1 and 2 except that the initiation and maintenance media contained 10.0 mg/l of ABA (as taught in U.S. Pat. No. 5,856,191). The seven cell lines were retrieved from cryogenic storage, thawed, and transferred, via the procedure described in Example 2. Each cell line was subjected to three post-cryopreservation medium treatments. The first treatment was a control (i.e., DCR1 medium without ABA), the second treatment was DCR1 medium with 10 mg/l of ABA, and the third treatment was DCR1 medium with 30 mg/l of ABA. There were four plates (each derived from an individual cryogenic vial) per treatment and cell line.
(§2) The embryogenic cultures on membranes were transferred after 24 hours from the temporary recovery medium onto the post-cryopreservation medium and thereafter, every 14 days to a new plate of the same post-cryopreservation medium. The culture environment during post-cryopreservation recovery and growth was 23° C. in the dark. At 28 days after retrieval from cryogenic storage the final fresh weight of the proliferating embryogenic culture was measured. The data were analyzed using the SAS GLM ANOVA statistical software program (Release 6.12 commercially available from the SAS Institute, Inc.), and the results are shown in Table III below.

[3] = test system: pitch×loblolly pine interspecies hybrid cell lines (AA-24, Q-01, Q-39); assay: as above
Text: as §1, §2

[4] = test system: loblolly pine embryogenic cell lines; assay: Yield of stage 3 somatic embryos from embryogenic cultures retrieved from cryopreservation (Example 4); details: for Total Number of Somatic Embryos Harvested: recovered on 30 mg/l ABA, nine weeks on embryo development medium
Text: The purpose of this experiment was to determine whether addition of ABA to the post-cryopreservation culture medium improved the yield of somatic embryos harvested from the cultures after they were retrieved from cryogenic storage. The six loblolly pine cell lines retrieved from cryogenic storage in Example 1 were used in this experiment. Embryogenic tissue from each cell line was dispersed onto nylon membranes using liquid DCR1 medium (formulation in Table 1 without the GELRITE). Four ml of embryogenic culture retrieved from cryogenic storage of each cell line and treatment (both the no ABA and the 30 mg/l ABA post-cryopreservation recovery medium) was added to 5 ml of liquid DCR1 medium and dispersed by agitation. One ml aliquots of the suspension were dispensed using a sterile 5-ml pipette with a cotton plug. Each 1 ml aliquot was transferred to the surface of a sterile 4 cm nylon membrane positioned on top of two sterile Whatman No. 2 filter papers in the bottom of an empty 15×100 mm sterile plastic culture plate. The nylon membranes with the dispersed embryogenic cultures were placed on either DCR1 medium containing 30 mg/l ABA or the same medium without any ABA depending on their respective post-cryopreservation recovery medium treatments from which they were derived. […] The tissue on the nylon membranes was cultured for 5-6 days at 23° C. in the dark to induce proliferation from the newly dispersed cultures. The nylon membranes with tissue were then transferred to an embryo development medium (see Table IV below) as described in U.S. Pat. No. 5,731,204 (Rutter et al.), to test the yield of stage 3 cotyledonary somatic embryos. The plates with membranes containing the embryogenic cultures were incubated in the dark at 23° C. The nylon membranes with the embryogenic cultures were transferred to new plates containing the same fresh embryo development medium every three weeks. After a total of nine weeks, the number of stage 3 embryos was counted on each membrane, and the data were analyzed using SAS GLM ANOVA statistical software.

[5] = test system: loblolly pine (Pinus taeda) embryogenic cell lines; assay: Percent increase in fresh weight of pine embryogenic cell lines retrieved from cryopreservation on post-cryopreservation recovery medium (Examples 1 and 2); details: DCR1 + 30 mg/l ABA, 26 days after retrieval
[6] = all six cell lines A1-A6, 30 mg/l ABA

CC1=CC(=O)CC(C)(C)[C@@]1(O)/C=C/C(C)=C\C(=O)O [ABA, abscisic acid]
Additional Culture Growth on DCR1 + ABA, overall ([1]; Average and Increase lines, all ten cell lines, 30 mg/l ABA): yes | Increase of overall average percent increase in fresh weight on medium with ABA compared to medium without ABA ([1]; all ten cell lines, 30 mg/l ABA): 70% | Average Percent Increase in Fresh Weight, average of all ten cell lines ([1]; average of cell lines A1-A6 and B1-B4, DCR1 + 30 mg/l ABA): 2469% | Additional Culture Growth on DCR1 + ABA ([1]; cell line A1): yes | Average Percent Increase in Fresh Weight ([1]; cell line A1, DCR1 + 30 mg/l ABA, 25 days after retrieval): 270% | Additional Culture Growth on DCR1 + ABA ([1]; cell line A2): yes | Average Percent Increase in Fresh Weight ([1]; cell line A2, DCR1 + 30 mg/l ABA, 25 days after retrieval): 7484% | Additional Culture Growth on DCR1 + ABA ([1]; cell line A3): yes | Average Percent Increase in Fresh Weight ([1]; cell line A3, DCR1 + 30 mg/l ABA, 25 days after retrieval): 4065% | Total fresh weight of embryogenic tissue from three cryogenic vials ([1]; cell line A3, medium with ABA (30 mg/l)): 5.17 grams | Additional Culture Growth on DCR1 + ABA ([1]; cell line A4): yes | Average Percent Increase in Fresh Weight ([1]; cell line A4, DCR1 + 30 mg/l ABA, 25 days after retrieval): 1652% | Additional Culture Growth on DCR1 + ABA ([1]; cell line A5): yes | Average Percent Increase in Fresh Weight ([1]; cell line A5, DCR1 + 30 mg/l ABA, 25 days after retrieval): 6479% | Additional Culture Growth on DCR1 + ABA ([1]; cell line A6): yes | Average Percent Increase in Fresh Weight ([1]; cell line A6, DCR1 + 30 mg/l ABA, 25 days after retrieval): 1221% | Additional Culture Growth on DCR1 + ABA ([1]; cell line B1): no | Additional Culture Growth on DCR1 + ABA ([1]; cell line B2): yes | Additional Culture Growth on DCR1 + ABA ([1]; cell line B3): yes | Average Percent Increase in Fresh Weight ([1]; cell line B3, DCR1 + 30 mg/l ABA, 26 days after retrieval): 3259% | Additional Culture Growth on DCR1 + ABA ([1]; cell line B4): yes | % Increase of average culture fresh weight over control without ABA ([2]; 10 mg/l ABA): 35% | % Increase of average culture fresh weight over control without ABA ([2]; 30 mg/l ABA): 52%^a | Mean Culture Fresh Weight, average of cell lines ([2]; 10 mg/l ABA): 1.86 g | Mean Culture Fresh Weight, average of cell lines ([2]; 30 mg/l ABA): 2.10^a g | Mean Culture Fresh Weight ([2]; cell line E-117, 10 mg/l ABA): 0.38^a g | Mean Culture Fresh Weight ([2]; cell line E-117, 30 mg/l ABA): 0.33 g | Mean fresh weight higher than control treatment without ABA ([2]; cell line G-05, 10 mg/l ABA): 52% | Mean Culture Fresh Weight ([2]; cell line G-05, 10 mg/l ABA): 3.82^a g | Mean fresh weight higher than control treatment without ABA ([2]; cell line G-05, 30 mg/l ABA): 48% | Mean Culture Fresh Weight ([2]; cell line G-05, 30 mg/l ABA): 3.73 g | Mean Culture Fresh Weight ([2]; cell line K-12, 10 mg/l ABA): 0.55 g | Mean Culture Fresh Weight ([2]; cell line K-12, 30 mg/l ABA): 1.09^a g | Mean Culture Fresh Weight ([2]; cell line O-72, 10 mg/l ABA): 0.09 g | Mean Culture Fresh Weight ([2]; cell line O-72, 30 mg/l ABA): 0.10^a g | Mean Culture Fresh Weight ([3]; cell line AA-24, 10 mg/l ABA, 28 days after retrieval): 5.22 g | Mean Culture Fresh Weight ([3]; cell line AA-24, 30 mg/l ABA, 28 days after retrieval): 5.45^a g | Mean Culture Fresh Weight ([3]; cell line Q-01 (initiated and maintained with 10.0 mg/l ABA), 10 mg/l ABA, 28 days): 2.91^b g | Mean Culture Fresh Weight ([3]; cell line Q-01 (initiated and maintained with 10.0 mg/l ABA), 30 mg/l ABA, 28 days): 3.81^ab g | Mean Culture Fresh Weight ([3]; cell line Q-39 (initiated and maintained with 10.0 mg/l ABA), 10 mg/l ABA, 28 days): 0.01 g | Mean Culture Fresh Weight ([3]; cell line Q-39 (initiated and maintained with 10.0 mg/l ABA), 30 mg/l ABA, 28 days): 0.17 g | % Increase of total number of somatic embryos harvested over control without ABA [4, 6]: 332% | Total Number of Somatic Embryos Harvested, total of the 6 cell lines [4, 6]: 588 | Total Number of Somatic Embryos Harvested ([4]; cell line A1): 404 | Total Number of Somatic Embryos Harvested ([4]; cell line A2): 82 | Total Number of Somatic Embryos Harvested ([4]; cell line A3): 0 | Total Number of Somatic Embryos Harvested ([4]; cell line A4): 43 | Total Number of Somatic Embryos Harvested ([4]; cell line A5): 15 | Total Number of Somatic Embryos Harvested ([4]; cell line A6): 44 | Average Percent Increase in Fresh Weight ([5]; cell line B1): 195% | Average Percent Increase in Fresh Weight ([5]; cell line B2): 29% | Average Percent Increase in Fresh Weight ([5]; cell line B4): 34%

From patent US6682931B2, “Recovering cryopreserved conifer embryogenic cultures” (MeadWestvaco Corporation, priority 1999, dated 2004)
